Assays:
rat [1] = experiment: amount in urine after dosing (umol); conditions: inhalation, duration: 4 hr, F344 (Harlan Winkelmann)
Rat [2] = experiment: concentration in plasma after dosing; conditions: 1.5 h; dosed: Potassium Perfluorobutane Sulfonate; 4 mg/kg; iv; Male; F344
Rat [3] = experiment: concentration in liver after dosing; conditions: dosed: Potassium Perfluorobutane Sulfonate, 20 mg/kg, oral
Rat [4] = experiment: concentration in plasma after dosing; conditions: 1.5 h; dosed: Potassium Perfluorobutane Sulfonate; 4 mg/kg; iv; Male; F344; remark: listed apart in the source
Rat [5] = experiment: concentration in brain after dosing; conditions: dosed: Potassium Perfluorobutane Sulfonate, 20 mg/kg, oral
Rat [6] = experiment: concentration in plasma after dosing
Rat [7] = experiment: concentration in kidney after dosing; conditions: dosed: Potassium Perfluorobutane Sulfonate, 20 mg/kg, oral
Rat [8] = experiment: concentration in plasma after dosing; conditions: 0.5 h; dosed: Nitrite; 20 mg/kg; iv; Male; F344

CC(C)(C)O [tert-butyl alcohol]
rat [1]
Conditions | amount in urine
5.904 h, dosed: methyl tert-butyl ether, 38.7 ppm | 0.773
5.97 h, dosed: ethyl tert-butyl ether, 40.6 ppm | 0.601
11.88 h, dosed: methyl tert-butyl ether, 38.7 ppm | 0.347
11.92 h, dosed: ethyl tert-butyl ether, 40.6 ppm | 0.254
11.96 h, dosed: methyl tert-butyl ether, 4.5 ppm | 0.24
17.95 h, dosed: methyl tert-butyl ether, 4.5 ppm | 0.076
17.97 h, dosed: methyl tert-butyl ether, 38.7 ppm | 0.126
17.99 h, dosed: ethyl tert-butyl ether, 40.6 ppm | 0.187
23.91 h, dosed: methyl tert-butyl ether, 4.5 ppm | 0.0671
23.93 h, dosed: methyl tert-butyl ether, 38.7 ppm | 0.0789
23.94 h, dosed: ethyl tert-butyl ether, 40.6 ppm | 0.0668
29.91 h, dosed: methyl tert-butyl ether, 38.7 ppm | 0.0315
29.93 h, dosed: ethyl tert-butyl ether, 40.6 ppm | 0.0668
29.96 h, dosed: methyl tert-butyl ether, 4.5 ppm | 0.083

O=S(=O)([O-])C(F)(F)C(F)(F)C(F)(F)C(F)(F)F.[K+] [Potassium Perfluorobutane Sulfonate]
Conditions | concentration in plasma [ng/mL]
Rat [2] | 11400
Rat [4] | 17300

Conditions | concentration in brain, Rat [5] [ng/g] | concentration in kidney, Rat [7] [ng/g] | concentration in liver, Rat [3] [ng/g]
0.5 h, Female, Harlan Sprague Dawley | 538 | 30100 | 29500
0.5 h, Male, Harlan Sprague Dawley | 590 | 19000 | 61000
0.5 h, Male, Harlan Sprague Dawley - this seems too small | 725 | 19900 | 95200
1 h, Female, Harlan Sprague Dawley | – | 17600 | 42000
1 h, Male, Harlan Sprague Dawley | 1120 | 14900 | 75600
3 h, Female, Harlan Sprague Dawley | – | 10900 | 5790
3 h, Male, Harlan Sprague Dawley | 769 | 19700 | 87000
6 h, Female, Harlan Sprague Dawley | – | 1290 | 910
6 h, Male, Harlan Sprague Dawley | 562 | 15200 | 51600
12 h, Male, Harlan Sprague Dawley | – | 1960 | 7420

concentration in plasma [ng/mL], Rat [6], dosed: Potassium Perfluorobutane Sulfonate
Conditions | 4 mg/kg | 20 mg/kg
0.25 h, iv, Male, F344 | 28000 | –
0.25 h, oral, Male, Harlan Sprague Dawley | 4690 | 28700
0.5 h, iv, Female, Harlan Sprague-Dawley | 11100 | –
0.5 h, iv, Male, F344 | 23800 | –
0.5 h, oral, Male, Harlan Sprague Dawley | 9170 | –
0.75 h, iv, Female, Harlan Sprague-Dawley | 7790 | –
0.75 h, iv, Male, F344 | 23800 | –
0.75 h, oral, Male, Harlan Sprague Dawley | 9060 | 49600
1 h, iv, Female, Harlan Sprague-Dawley | 4090 | –
1 h, iv, Male, F344 | 22000 | –
1 h, oral, Male, Harlan Sprague Dawley | 12900 | –
1.5 h, iv, Male, F344 | 18500 | –
1.5 h, oral, Male, Harlan Sprague Dawley | 12100 | 63600
3 h, iv, Male, F344 | 10500 | –
3 h, oral, Male, Harlan Sprague Dawley | 15300 | –
5 min, iv, Male, F344 | 33300 | –
5 min, oral, Male, Harlan Sprague Dawley | 537 | 653
6 h, iv, Male, F344 | 6690 | –
6 h, oral, Male, Harlan Sprague Dawley | 12500 | –
9 h, oral, Male, Harlan Sprague Dawley | 8100 | 15100
12 h, iv, Male, F344 | 1600 | –
12 h, oral, Male, Harlan Sprague Dawley | 9160 | –
24 h, iv, Male, F344 | 232 | –
24 h, oral, Male, Harlan Sprague Dawley | 47.1 | 364
48 h, oral, Male, Harlan Sprague Dawley | – | 42.6

O=N[O-] [Nitrite]
Conditions | concentration in plasma [ng/mL]
Rat [8] | 3700

concentration in plasma [ng/mL], Rat [6], dosed: Nitrite
Conditions | Female | Male
0.5 h, 20 mg/kg, iv, F344 | – | 2600
0.5 h, 40 mg/kg, oral, F344 | 6000 | 1900
0.5 h, 80 mg/kg, oral, F344 | 11300 | –
0.75 h, 20 mg/kg, iv, F344 | – | 2400
1 h, 20 mg/kg, iv, F344 | – | 2000
1 h, 40 mg/kg, oral, F344 | 2900 | 3400
1 h, 80 mg/kg, oral, F344 | 9700 | –
2 h, 40 mg/kg, oral, F344 | 2600 | –
2 h, 80 mg/kg, oral, F344 | 7500 | –
2 min, 20 mg/kg, iv, F344 | – | 14800
2 min, 40 mg/kg, oral, F344 | 3100 | –
2 min, 40 mg/kg, oral, Harlan Sprague-Dawley | 2200 | –
2 min, 80 mg/kg, oral, F344 | 8200 | –
4 h, 80 mg/kg, oral, F344 | 2400 | –
5 min, 20 mg/kg, iv, F344 | – | 3100
5 min, 40 mg/kg, oral, F344 | 4800 | –
5 min, 40 mg/kg, oral, Harlan Sprague-Dawley | 1700 | –
5 min, 80 mg/kg, oral, F344 | 12400 | –
6 h, 80 mg/kg, oral, F344 | 2000 | –
8 h, 80 mg/kg, oral, F344 | 1700 | –
10 h, 80 mg/kg, oral, F344 | 1700 | –
10 min, 20 mg/kg, iv, F344 | – | 4300
10 min, 40 mg/kg, oral, F344 | 5900 | 3400
10 min, 40 mg/kg, oral, Harlan Sprague-Dawley | 2500 | –
10 min, 80 mg/kg, oral, F344 | 7500 | –
20 min, 20 mg/kg, iv, F344 | – | 900
